Reference: patent US20210038515A1 (Azurity Pharmaceuticals, Inc., priority 2014, published 2021)
Where a name gives a salt, the structure may show the parent alone.

How the values were obtained:
[1] = Stability of vancomycin hydrochloride powder in bottle (HPLC or cylinder plate analysis); details: for μg/mg vancomycin hydrochloride powder: Ex. 1, 10 g powder in HDPE bottle; for % Vancomycin B / % other impurities / % Monodechlorovancomycin: Ex. 1 powder in bottle; for Monodechlorovancomycin / Other Impurities / Vancomycin / Vancomycin B: Ex. 4, 15.38 g powder in bottle
Procedure: Stability may be assessed by cylinder-plate assay (the cylinder plate assay depends on the diffusion of the antibiotic from a vertical cylinder through a solidified agar layer in a petri dish or plate. The growth of the specific microorganisms inoculated into the agar is prevented in a circular area or zone around the cylinder containing the solution of the antibiotic), HPLC or any other known testing method.
The stability of vancomycin hydrochloride powder was evaluated. […] At various time points the powder in the bottle was analyzed for vancomycin hydrochloride, vancomycin B, other impurities, and monodechlorovancomycin by HPLC or cylinder plate analysis.
Vancomycin hydrochloride was further investigated in stability studies. […] At each given time point, vancomycin hydrochloride, vancomycin B, other impurities, and monodechlorovancomycin were assayed by HPLC or total microbiological activity was assessed by cylinder plate analysis.

[2] = 289 mL solution component + 15.38 g powder, shaken 30 seconds
[3] = Ex. 4, 3 months accelerated and ambient

CN[C@H](CC(C)C)C(=O)N[C@H]1C(=O)N[C@@H](CC(N)=O)C(=O)N[C@H]2C(=O)NC3C(=O)N[C@H](C(=O)N[C@H](C(=O)O)c4cc(O)cc(O)c4-c4cc3ccc4O)[C@H](O)c3ccc(c(Cl)c3)Oc3cc2cc(c3OC2OC(CO)C(O)C(O)C2OC2CC(C)(N)C(O)C(C)O2)Oc2ccc(cc2Cl)[C@H]1O (some centres unmarked) [vancomycin hydrochloride powder, vancomycin hydrochloride]
μg/mg vancomycin hydrochloride powder ([1]; 40° C./75% RH, 0 months): 1067 µg/mg | μg/mg vancomycin hydrochloride powder ([1]; 40° C./75% RH, 1 month): 1076 µg/mg | μg/mg vancomycin hydrochloride powder ([1]; 40° C./75% RH, 2 months): 1097 µg/mg | μg/mg vancomycin hydrochloride powder ([1]; 40° C./75% RH, 3 months): 1094 µg/mg | μg/mg vancomycin hydrochloride powder ([1]; 40° C./75% RH, 6 months): 1137 µg/mg | powder in bottle stability ([1]; Ex. 1, ambient and accelerated conditions (25° C./60% RH and 40°/75% RH)): stable | % Vancomycin B ([1]; 25° C./60% (RH), 0 months): 93.03% | % other impurities ([1]; 25° C./60% (RH), 0 months): <5.0% for all other | % Vancomycin B ([1]; 25° C./60% (RH), 3 months): 92.19% | % other impurities ([1]; 25° C./60% (RH), 3 months): <5.0% for all other | % Vancomycin B ([1]; 25° C./60% (RH), 6 months): 92.04% | % other impurities ([1]; 25° C./60% (RH), 6 months): <5.0% for all other | % Vancomycin B ([1]; 25° C./60% (RH), 9 months): 89.34% | % other impurities ([1]; 25° C./60% (RH), 9 months): <5.0% for all other | % Vancomycin B ([1]; 25° C./60% (RH), 12 months): 88.85% | % other impurities ([1]; 25° C./60% (RH), 12 months): <5.0% for all other | % Vancomycin B ([1]; 25° C./60% (RH), 18 months): 90.8% | % other impurities ([1]; 25° C./60% (RH), 18 months): <5.0% for all other | % Vancomycin B ([1]; 40° C./75% RH, 0 months): 93.03% | % other impurities ([1]; 40° C./75% RH, 0 months): <5.0% for all other | % Monodechlorovancomycin ([1]; 40° C./75% RH, 1 month): 1.0% | % Vancomycin B ([1]; 40° C./75% RH, 1 month): 91.87% | % other impurities ([1]; 40° C./75% RH, 1 month): <5.0% for all other | % Monodechlorovancomycin ([1]; 40° C./75% RH, 2 months): 1.3% | % Vancomycin B ([1]; 40° C./75% RH, 2 months): 89.14% | % other impurities ([1]; 40° C./75% RH, 2 months): <5.0% for all other | % Monodechlorovancomycin ([1]; 40° C./75% RH, 3 months): 1.6% | % Vancomycin B ([1]; 40° C./75% RH, 3 months): 88.22% | % other impurities ([1]; 40° C./75% RH, 3 months): <5.0% for all other | % Vancomycin B ([1]; 40° C./75% RH, 6 months): 81.84% | % other impurities ([1]; 40° C./75% RH, 6 months): <5.0% for all other | Monodechlorovancomycin ([1]; 25° C./60% RH, 0 months): 1.5% | Other Impurities ([1]; 25° C./60% RH, 0 months): <5.0% for | Vancomycin ([1]; 25° C./60% RH, 0 months): 1,112 mcg/mg | Vancomycin B ([1]; 25° C./60% RH, 0 months): 94.7% | Monodechlorovancomycin ([1]; 25° C./60% RH, 3 months): 1.1% | Other Impurities ([1]; 25° C./60% RH, 3 months): <5.0% for | Vancomycin ([1]; 25° C./60% RH, 3 months): 1,070 mcg/mg | Vancomycin B ([1]; 25° C./60% RH, 3 months): 91.8% | Monodechlorovancomycin ([1]; 40° C./60% RH, 0 months): 1.5% | Other Impurities ([1]; 40° C./60% RH, 0 months): <5.0% for all | Vancomycin ([1]; 40° C./60% RH, 0 months): 1,112 mcg/mg | Vancomycin B ([1]; 40° C./60% RH, 0 months): 94.7% | Monodechlorovancomycin ([1]; 40° C./60% RH, 1 month): 1.4% | Other Impurities ([1]; 40° C./60% RH, 1 month): <5.0% for all | Vancomycin ([1]; 40° C./60% RH, 1 month): 1,095 mcg/mg | Vancomycin B ([1]; 40° C./60% RH, 1 month): 91.3% | Monodechlorovancomycin ([1]; 40° C./60% RH, 2 months): 1.1% | Other Impurities ([1]; 40° C./60% RH, 2 months): <5.0% for all | Vancomycin ([1]; 40° C./60% RH, 2 months): 1,108 mcg/mg | Vancomycin B ([1]; 40° C./60% RH, 2 months): 90.8% | Monodechlorovancomycin ([1]; 40° C./60% RH, 3 months): 1.0% | Other Impurities ([1]; 40° C./60% RH, 3 months): <5.0% for all | Vancomycin ([1]; 40° C./60% RH, 3 months): 1,095 mcg/mg | Vancomycin B ([1]; 40° C./60% RH, 3 months): 87.6% | Monodechlorovancomycin, not exceeded [1, 3]: ≤ 4.7% | other impurities, not exceeded [1, 3]: ≤ 5.0% | powder stability ([1]; Ex. 4, accelerated and ambient (25±2° C./60±5% RH) conditions): remained stable through 3 months under accelerated stability conditions and 3 months under ambient | dissolution of powder in the solution component [2]: easily dissolves in the solution component
